The values below come from patent US20130303557A1, “PHARMACEUTICAL COMPOSITIONS AND METHODS OF TREATING DRY EYE DISORDERS” (PFIZER INC., priority 2010, published 2013).

Format in all cases: in vivo
Test [1] deals with MRL/Ipr dry eye mice. Put plainly: Dose response of CP690550 on tear production in MRL/Ipr mice (Formulations 1, 3 and 4). Particulars: at 2 days after treatment, all comparisons, FIGS. 4-6. The procedure: As with Example 4 above, vehicle-treated normal C57black/6 and MRL/Ipr dry eye mice (5-10 mice/group) were used as normal control and dry eye control, respectively. […] Treatment for Formulation 1 was carried for two weeks, at […], twice a day.

Test [2] has as its system MRL/Ipr dry eye mice. Put plainly: Comparative tear production, CP-690550 versus Restasis, in MRL/Ipr dry eye mice (phenol red thread). The settings on record: CP-690550 0.01% vs Restasis (cyclosporine 0.05%), 2 μl twice a day for 30 days; FIG. 3. The procedure:
Tear measurement was done using phenol red impregnated thread (Quick Zone®) and baseline measurement was performed before each drug application. Drugs or vehicles were applied at 2 μl, two times a day.
Vehicle-treated normal C57black/6 and MRL/Ipr dry eye mice were used as normal control and dry eye control, respectively.
Control animals included normal C57Black/6 mice, and MRL/Ipr mice, treated with PBS vehicle and MRL/Ipr mice treated with Refresh Endura® (vehicle for Restasis) (5-10 mice/group).

The test system of a further test is dry-induced C57 mice. Briefly: Induced dry eye mouse model (scopolamine plus fans), tear production. Particulars: at 2 days of treatment; 1 μl once a day, Formulations 3 and 5; FIGS. 7 and 8. The method, then:
An injection was prepared comprising 2.5 mg/ml scopolamine (sigma) in injectable saline (1-1.5 ml per animal). In normal C57 mice (200-250) ul of scopolamine was injected four times every 2.5 hrs in alternating hind quarters. The mice were placed in special cages (with holes in front and back) and placed in a hood. Fans were placed in front of each cage, and turned on for 16 hours over night for five days. Measurements were taken daily.
As with Examples 4 and 5 above, animals were treated with drug or vehicle at 1 μl, once a day for 2 weeks.

As to `C[C@@H]1CCN(C(=O)CC#N)C[C@@H]1N(C)c1ncnc2[nH]ccc12` [CP690550, 3-{(3R,4R)-4-Methyl-3-[methyl-(7H-pyrrolo[2,3-d]pyrimidin-4-yl)-amino]-piperidin-1-yl}-3-oxo-propionitrile], the “improvement in tear production” value in the test on MRL/Ipr dry eye mice [1] is reported as “significant improvement in tear production”. Further, in the test with MRL/Ipr dry eye mice [2], the “response rate as compared to Restasis” value was “much faster response rate as compared to Restasis®” and the “volume of tear production compared with Restasis” value is listed as “significant improvement in the volume of tear production over Restasis®”. Moreover, in the test on dry-induced C57 mice, the “increase in tear production” value was “significant increase in tear production”.
